{"source": "patent US20050208490A1", "about": "“Ligand binding pocket peptide fragment of estrogen-related receptor 3 (err3) and uses thereof” (priority 2002, published 2005)", "key": {"ERRα": {"biological_target": "T1, ERRα (Homo sapiens, UniProt P11474)", "T1 sequence (P11474 1-423)": "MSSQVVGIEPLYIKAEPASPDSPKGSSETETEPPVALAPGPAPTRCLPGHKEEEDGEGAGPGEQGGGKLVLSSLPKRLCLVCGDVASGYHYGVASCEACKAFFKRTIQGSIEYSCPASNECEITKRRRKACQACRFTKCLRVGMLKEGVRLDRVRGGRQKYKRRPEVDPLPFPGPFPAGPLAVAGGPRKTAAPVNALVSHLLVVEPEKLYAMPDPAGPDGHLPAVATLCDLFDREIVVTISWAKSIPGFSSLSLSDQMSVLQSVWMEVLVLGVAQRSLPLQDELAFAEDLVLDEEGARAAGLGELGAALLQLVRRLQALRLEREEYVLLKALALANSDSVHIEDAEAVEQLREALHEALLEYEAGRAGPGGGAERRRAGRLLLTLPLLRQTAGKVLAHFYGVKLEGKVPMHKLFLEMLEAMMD", "conditions": "micromolar concentrations; Yang and Chen (1999); cited from earlier work"}, "[1]": {"biological_target": "T2, ERR1 mutant F328 to alanine (Homo sapiens, UniProt P11474, F232A)", "T2 sequence (P11474 1-423 F232A)": "T1 sequence (P11474 1-423) with F232A", "conditions": "Chen S et al., 2001; cited from earlier work"}, "[2]": {"biological_target": "T3, His-tagged ERR3 LBD / GST-tagged SRC-1 RID complex (Homo sapiens, UniProt P62508)", "T3 construct": "cDNA fragments encoding wt or mutant ERR3 LBDs (residues 229 to 458, human and murine receptor are identical) were generated by PCR; made in house; host or cells: E. coli BL21 (DE3)", "T3 sequence (P62508 229-458)": "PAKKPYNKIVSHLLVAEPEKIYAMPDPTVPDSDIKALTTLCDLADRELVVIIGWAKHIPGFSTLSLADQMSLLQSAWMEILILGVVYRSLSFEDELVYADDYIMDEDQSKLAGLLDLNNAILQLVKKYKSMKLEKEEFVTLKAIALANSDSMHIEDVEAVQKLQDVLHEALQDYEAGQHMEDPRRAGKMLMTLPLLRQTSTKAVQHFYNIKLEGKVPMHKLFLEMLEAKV", "assay": "In vitro protein-protein interaction assay, wt ERR3 LBD with SRC-1 RID (native gel)", "assay_type": "biochemical", "conditions": "10^−4M ligand", "method": "(§1) The His-tagged wt or mutant ERR3 LBDs, the GST-tagged SRC-1 RID, and GST were expressed in E. coli BL21 (DE3) and partially purified by affinity chromatography using TALON (Clontech) or Glutathione Sepharose 4B (Pharmacia), respectively. […] After purification the proteins were dialyzed in assay buffer (20 mM Tris.HCl pH 8.0, 200 mM NaCl), and concentrated. For the protein-protein interaction assays […] (about 70 pmol) of His-tagged wt or mutant ERR3 LBD were mixed with […] (about 100 pmol) of GST-tagged SRC-1 RID or […] of GST and incubated on ice for 10 mins. […] Protein complexes were resolved on native polyacrylamide gradient gels (8%-25%) using the Phast System (Pharmacia).\n(§2) In vitro interaction assays with the RID (amino acids 617-764) of the coactivator SRC-1 has first been performed. Hexahistidine (His)-tagged ERR3, LBD and GST-tagged SRC-1 RID were partially purified by affinity chromatography, the proteins were mixed, and complex formation was monitored on native polyacrylamide gels. […] Complexes were separated on native polyacrylamide gradient gels."}, "[3]": {"tested_on": "mutant ERR3 LBDs (A272F, A272L, F435L, L345I, L345I-F435L, L345I-F435L-F450L) / GST-SRC-1 RID complex", "assay": "In vitro protein-protein interaction assay, mutant ERR3 LBDs with SRC-1 RID (native gel)", "assay_type": "biochemical, human", "conditions": "10^−4M 4-OHT", "method": "as §1, §2\nIn addition, the ligand-binding pocket of ERR3 has been enlarged by either mutating F435 to leucine or by introducing a triple point mutation (L345I-F435L-F450L) which creates an “ERα-like” ligand-binding pocket."}, "Gal4-ERR3": {"biological_target": "T4, Gal4-ERR3 (Homo sapiens, UniProt P62508)", "T4 construct": "cDNA fragments encoding wt or mutant ERR3 LBDs (residues 229 to 458, human and murine receptor are identical) were generated by PCR; expressed in transfected cells; host or cells: COS-1 cells (also Neuro2A and BHK)", "T4 sequence (P62508 229-458)": "T3 sequence (P62508 229-458)", "assay": "Transient transfection luciferase reporter assay, Gal4-ERR3 (wt LBD) in COS-1 cells", "assay_type": "cell-based", "method": "(§3) COS-1 and BHK cells were cultured in DMEM supplemented with 5% FCS, penicillin, streptomycin, and glutamine. Neuro2A cells were cultured in EMEM supplemented with 10% FCS, penicillin, streptomycin, glutamine, and non-essential amino acids. Transient transfection assays were carried out in 24-well plates (0.5×10^5 cells per well for COS-1 and Neuro2A cells, 0.25×10^5 cells per well for BHK cells) using the standard calcium phosphate coprecipitation technique as described in Greiner et al. (Greiner et al., 1996). Cells were transfected with 250 ng of Gal4(5×)-TATA-LUC, Gal4(3×)-TK-LUC, or ERE(2×)-TK-LUC reporter plasmid and 50 ng per well of pCMX-Gal4-ERR3 or pCMX-ERR3 expression plasmid. The empty plasmids pCMX-Gal4 and pCMX served as control. […] Luciferase activity was assayed as described in Greiner et al. (1996). All experiments were repeated at least three times.\n(§4) Finally, it has been asked whether ERR3 could activate transcription independently of a putative endogenous ligand. The wt and mutant ERR3 LBDs were fused to the DNA-binding domain of Gal4, and Gal4-ERR3 fusion proteins were tested for their potential to activate transcription in transient transfection assays using synthetic reporters in eukaryotic cell lines. […]"}, "[4]": {"tested_on": "Gal4-ERR3 mutants (A272F, A272L, F435L, L345I-F435L-F450L)", "assay": "Transient transfection luciferase reporter assay, mutant Gal4-ERR3 fusion proteins in COS-1 cells", "assay_type": "cell-based, human", "conditions": "10^−6M 4-OHT", "method": "as §3, §4"}, "full length ERR3": {"biological_target": "full length ERR3 (Homo sapiens, UniProt P62508)", "assay": "Transient transfection with ERE(2×)-TK-LUC reporter, full length ERR3", "assay_type": "cell-based", "conditions": "in the presence of 4-OHT", "method": "as §3"}, "ERR3 [5]": {"biological_target": "T5, ERR3 (Homo sapiens, UniProt P62508)", "T5 sequence (P62508 1-458)": "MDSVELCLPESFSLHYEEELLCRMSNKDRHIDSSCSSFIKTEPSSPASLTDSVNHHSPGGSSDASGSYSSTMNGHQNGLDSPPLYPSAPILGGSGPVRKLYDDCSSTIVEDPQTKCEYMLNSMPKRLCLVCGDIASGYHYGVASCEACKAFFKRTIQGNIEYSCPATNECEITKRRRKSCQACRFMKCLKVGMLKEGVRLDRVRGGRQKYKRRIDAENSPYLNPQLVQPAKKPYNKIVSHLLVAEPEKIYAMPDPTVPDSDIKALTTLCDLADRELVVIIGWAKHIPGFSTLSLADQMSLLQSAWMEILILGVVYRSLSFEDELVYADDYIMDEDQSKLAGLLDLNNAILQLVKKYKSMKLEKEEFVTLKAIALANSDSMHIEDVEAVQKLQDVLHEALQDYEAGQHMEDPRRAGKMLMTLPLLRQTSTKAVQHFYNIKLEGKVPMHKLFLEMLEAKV", "conditions": "Coward et al. (2001); cited from earlier work"}, "ERR1, ERR2 and ERR3": {"tested_on": "ERR1, ERR2 and ERR3", "conditions": "Coward et al., 2001 / reported, cited from earlier work"}, "ERR3 [6]": {"biological_target": "T5, ERR3", "conditions": "Coward et al. (2001); cited from earlier work", "remark": "listed apart in the source"}}, "note": "Where a chain is given by its changes, count along the chain named. Entries after “also recorded” stand apart in the source; their conditions may differ. Read-outs that look alike come from different tables or passages of the source.", "data": [{"compound": "ClC1=C(Cl)C2(Cl)C3C(Cl)C(Cl)CC3C1(Cl)C2(Cl)Cl", "note": "(centres unmarked) [chlordane]", "values": [{"measurement": "effect on ERRα basal activity", "setting": "ERRα", "value": "decrease ERRα basal activity"}]}, {"compound": "CC1(C)C(C(Cl)Cl)C2(Cl)C(Cl)C(Cl)C1(Cl)C2(Cl)Cl", "note": "(centres unmarked) [toxaphene]", "values": [{"measurement": "effect on ERRα basal activity", "setting": "ERRα", "value": "decrease ERRα basal activity"}, {"measurement": "activation of ERR1 F328A mutant", "setting": "[1]", "value": "can be activated by toxaphene"}]}, {"compound": "4-hydroxytamoxifen [4-OHT]", "values": [{"measurement": "conformational change of the ERR3 LBD (migration on native gels)", "setting": "[2]", "value": "significant conformational change"}, {"measurement": "disruption of the ERR3 LBD/GST-SRC-1 RID complex", "setting": "[2]; native polyacrylamide gradient gel", "value": "specifically disrupted"}, {"measurement": "disruption of the mutant ERR3 LBD/GST-SRC-1 RID complex", "setting": "[3]; mutant F435L", "value": "still disrupted"}, {"measurement": "disruption of the mutant ERR3 LBD/GST-SRC-1 RID complex", "setting": "[3]; mutants A272F or A272L", "value": "no effect is observed"}, {"measurement": "antagonist action on mutant ERR3 LBD in vitro", "setting": "[3]; mutants F435L, L345I-F435L, L345I-F435L-F450L", "value": "still acts as an antagonist"}, {"measurement": "repression of Gal4-ERR3 constitutive activity below basal levels of the TK promoter", "setting": "Gal4-ERR3; Gal4(3×)-TK-LUC reporter", "value": "neither 4-OHT nor DES repress the constitutive activity of Gal4-ERR3 below basal levels"}, {"measurement": "transcriptional activity of Gal4-ERR3", "setting": "Gal4-ERR3; Gal4(5×)-TATA-LUC reporter, 10^−6M 4-OHT", "value": "blocked efficiently"}, {"measurement": "transcriptional activity of Gal4-ERR3 mutants", "setting": "[4]; Gal4-ERR3(A272F) or Gal4-ERR3(A272L)", "value": "but not of Gal4-ERR3(A272F) or Gal4-ERR3(A272L)"}, {"measurement": "transcriptional activity of Gal4-ERR3 mutants", "setting": "[4]; Gal4-ERR3(F435L) and Gal4-ERR3(L345I-F435L-F450L)", "value": "antagonizes the transcriptional activity"}, {"measurement": "active repression of transcription of the TK promoter by full length ERR3", "setting": "full length ERR3", "value": "does not actively repress transcription of the TK promoter"}, {"measurement": "effect on ERR3 transcriptional activity", "setting": "ERR3 [5]", "value": "repressed transactivation; also recorded: selectively block the transcriptional activity of ERR3"}, {"measurement": "binding to ERR isotypes", "setting": "ERR1, ERR2 and ERR3; listed as 40HT", "value": "binds both ERR2 and ERR3"}, {"measurement": "binding to ERR isotypes", "setting": "ERR1, ERR2 and ERR3", "value": "does not bind ERR1; also recorded: binds to ERR2 and ERR3 but not to ERR1"}, {"measurement": "affinity of binding to ERR3", "setting": "ERR3 [6]", "value": "submicromolar"}]}]}
